What was measured:
[1] = target: T1, sGC α1/β1 heterodimer (Homo sapiens, UniProt Q02108+Q02153); assay: Cell-Based sGC Functional Assay (CASA Assay), cGMP generation in CHO-K1/sGC cells;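 also: reference Compound A is a published heme-dependent sGC activator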; conditions: maximum cGMP production of Compound A set to 100% activation, read-out: % Act. (percent activation relative to Compound A)
T1 construct: expressed in transfected cells
T1 sequence (Q02108 1-690): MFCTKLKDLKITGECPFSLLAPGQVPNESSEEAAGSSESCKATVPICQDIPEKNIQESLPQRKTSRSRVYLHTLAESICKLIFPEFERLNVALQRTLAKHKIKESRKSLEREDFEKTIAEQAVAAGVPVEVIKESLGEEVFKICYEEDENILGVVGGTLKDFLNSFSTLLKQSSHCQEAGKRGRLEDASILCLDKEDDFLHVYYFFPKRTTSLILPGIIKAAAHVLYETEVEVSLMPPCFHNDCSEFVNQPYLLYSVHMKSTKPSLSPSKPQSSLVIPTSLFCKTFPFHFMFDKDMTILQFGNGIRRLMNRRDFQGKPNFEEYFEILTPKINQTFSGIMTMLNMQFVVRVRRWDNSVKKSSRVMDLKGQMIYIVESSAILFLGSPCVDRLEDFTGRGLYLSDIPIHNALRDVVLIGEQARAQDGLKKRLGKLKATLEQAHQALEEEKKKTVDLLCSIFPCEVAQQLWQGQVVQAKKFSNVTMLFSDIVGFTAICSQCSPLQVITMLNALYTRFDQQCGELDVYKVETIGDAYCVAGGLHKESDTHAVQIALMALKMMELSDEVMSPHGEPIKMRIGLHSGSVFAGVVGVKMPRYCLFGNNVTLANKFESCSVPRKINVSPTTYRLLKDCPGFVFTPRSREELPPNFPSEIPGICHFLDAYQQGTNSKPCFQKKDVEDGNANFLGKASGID
T1 sequence (Q02153 1-619): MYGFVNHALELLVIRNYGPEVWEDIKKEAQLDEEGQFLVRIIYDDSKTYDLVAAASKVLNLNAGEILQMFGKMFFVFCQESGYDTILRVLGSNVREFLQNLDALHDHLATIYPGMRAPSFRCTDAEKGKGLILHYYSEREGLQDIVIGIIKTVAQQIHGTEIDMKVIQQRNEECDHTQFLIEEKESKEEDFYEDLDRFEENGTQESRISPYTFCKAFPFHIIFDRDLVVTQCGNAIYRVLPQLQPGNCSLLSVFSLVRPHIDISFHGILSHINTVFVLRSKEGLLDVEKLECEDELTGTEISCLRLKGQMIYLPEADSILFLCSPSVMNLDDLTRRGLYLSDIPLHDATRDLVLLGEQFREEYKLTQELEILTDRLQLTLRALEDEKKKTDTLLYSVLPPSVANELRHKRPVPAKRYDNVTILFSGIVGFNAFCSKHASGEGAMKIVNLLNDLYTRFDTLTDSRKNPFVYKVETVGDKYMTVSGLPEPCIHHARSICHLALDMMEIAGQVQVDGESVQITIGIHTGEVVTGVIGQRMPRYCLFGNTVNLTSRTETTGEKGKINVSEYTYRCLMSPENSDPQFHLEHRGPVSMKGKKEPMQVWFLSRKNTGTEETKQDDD
Method in brief: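 CHO-K1 cells stably expressing human sGC α1/β1, 4×10^5/mL in EBSS with 5 mM MgCl2, 10 mM HEPES, 0.05% BSA, 0.5 mM IBMX, 2.5% DMSO; compounds 1 h at 37 °C ± 1 μM DETA-NO. cGMP by HTRF, expressed as % of reference Compound A maximum; IP and max fold induction from 4P fit.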

[2] = tested on: Spontaneously hypertensive rats (SHR); assay: Acute Efficacy in Spontaneously Hypertensive Rats (SHR), telemetry blood pressure; format: in vivo, rat; conditions: single oral gavage
Method in brief: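 Male SHR fitted with aortic telemetry transmitters and recovered 14 days; conscious blood pressure sampled 30 s every 10 min. Single oral gavage dose (vehicle 10% transcutol/20% Cremophor/70% water); hourly SBP change versus prior-day vehicle baseline, reported as maximum peak decrease.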

Row | Compound | Emax [1] [%] | Maximum peak decrease of systolic blood pressure (SBP) in SHR, Cat. ([2]; P.O. 0.3 mpk) | Maximum peak decrease of systolic blood pressure (SBP) in SHR, Cat. ([2]; P.O. 2 mpk) | Maximum peak decrease of systolic blood pressure (SBP) in SHR, Cat. ([2]; P.O. 3 mpk) | Maximum peak decrease of systolic blood pressure (SBP) in SHR, Cat. ([2]; P.O. 1 mpk)
1 | Nc1nc(-c2cn3ncnc3c(CCCC(F)(F)F)n2)nc2c1C(c1ncc(Cl)cn1)(C1CC1)C(=O)N2 (stereo not shown) [Example 41A, 4-amino-5-(5-chloropyrimidin-2-yl)-5-cyclopropyl-2-(8-(4,4,4-trifluorobutyl)-[1,2,4]triazolo[1,5-a]pyrazin-6-yl)-5H-pyrrolo[2,3-d]pyrimidin-6(7H)-one] | 151 | B (Category B=SBP in SHRs 20-40 mmHg) |  |  | 
2 | CCCc1nc(-c2nc(O)c3c(n2)NC(=O)C3(C)c2ccc(Cl)cc2)cn2ncnc12 (stereo not shown) [Example 164A, 5-(4-chlorophenyl)-4-hydroxy-5-methyl-2-(8-propyl-[1,2,4]triazolo[1,5-a]pyrazin-6-yl)-5H-pyrrolo[2,3-d]pyrimidin-6(7H)-one] | 253 |  | B (Category B=SBP in SHRs 20-40 mmHg) |  | 
3 | CCCCc1nc(-c2nc(O)c3c(n2)NC(=O)C3(C)c2ccc(F)c(F)c2)cn2ncnc12 (stereo not shown) [Example 158B, 2-(8-butyl-[1,2,4]triazolo[1,5-a]pyrazin-6-yl)-5-(3,4-difluorophenyl)-4-hydroxy-5-methyl-5H-pyrrolo[2,3-d]pyrimidin-6(7H)-one] | 232 | C (Category C=SBP in SHRs >40 mmHg) |  |  | 
4 | CC1(c2cncc(F)c2)C(=O)Nc2nc(-c3cn4ncnc4c(CCC(F)(F)C(F)(F)F)n3)nc(O)c21 (stereo not shown) [Example 125A, 5-(5-fluoropyridin-3-yl)-4-hydroxy-5-methyl-2-(8-(3,3,4,4,4-pentafluorobutyl)-[1,2,4]triazolo[1,5-a]pyrazin-6-yl)-5H-pyrrolo[2,3-d]pyrimidin-6(7H)-one] | 87 |  |  | A (Category A=SBP in SHRs <20 mmHg) | 
5 | CCCCc1nc(-c2nc(N)c3c(n2)NC(=O)C3(C)c2ccc(C(F)(F)F)cn2)cn2ncnc12 (stereo not shown) [Example 67B, 4-amino-2-(8-butyl-[1,2,4]triazolo[1,5-a]pyrazin-6-yl)-5-methyl-5-(5-(trifluoromethyl)pyridin-2-yl)-5H-pyrrolo[2,3-d]pyrimidin-6(7H)-one] | 119 | B (Category B=SBP in SHRs 20-40 mmHg) |  |  | 
6 | O=C1Nc2nc(-c3cn4ncnc4c(CCCC(F)(F)F)n3)nc(O)c2C1(c1ccc(Cl)cc1)C1CC1 (stereo not shown) [Example 140B, 5-(4-chlorophenyl)-5-cyclopropyl-4-hydroxy-2-(8-(4,4,4-trifluorobutyl)-[1,2,4]triazolo[1,5-a]pyrazin-6-yl)-5H-pyrrolo[2,3-d]pyrimidin-6(7H)-one] | 150 |  |  |  | A (Category A=SBP in SHRs <20 mmHg)
7 | CCCCc1nc(-c2nc(N)c3c(n2)NC(=O)C3(c2nnc(C(F)(F)F)o2)C2CC2)cn2ncnc12 (stereo not shown) [Example 105A, 4-amino-2-(8-butyl-[1,2,4]triazolo[1,5-a]pyrazin-6-yl)-5-cyclopropyl-5-(5-(trifluoromethyl)-1,3,4-oxadiazol-2-yl)-5H-pyrrolo[2,3-d]pyrimidin-6(7H)-one] | 176 | B (Category B=SBP in SHRs 20-40 mmHg) |  |  | 
8 | Nc1nc(-c2cn3ncnc3c(CCC(F)(F)C(F)(F)F)n2)nc2c1C(c1ccccn1)(C1CC1)C(=O)N2 (stereo not shown) [Example 114A, 4-amino-5-cyclopropyl-2-(8-(3,3,4,4,4-pentafluorobutyl)-[1,2,4]triazolo[1,5-a]pyrazin-6-yl)-5-(pyridin-2-yl)-5,7-dihydro-6H-pyrrolo[2,3-d]pyrimidin-6-one] | 122 |  |  |  | B (Category B=SBP in SHRs 20-40 mmHg)
9 | CC1(c2ccc(F)cn2)C(=O)Nc2nc(-c3cn4ncnc4c(CCCC(F)(F)F)n3)nc(O)c21 (stereo not shown) [Example 136B, 5-(5-fluoropyridin-2-yl)-4-hydroxy-5-methyl-2-(8-(4,4,4-trifluorobutyl)-[1,2,4]triazolo[1,5-a]pyrazin-6-yl)-5H-pyrrolo[2,3-d]pyrimidin-6(7H)-one] | 69 |  |  | B (Category B=SBP in SHRs 20-40 mmHg) | 
10 | CCCCc1nc(-c2nc(O)c3c(n2)NC(=O)C3(C)c2ccc(F)cn2)cn2ncnc12 (stereo not shown) [Example 155B, 2-(8-butyl-[1,2,4]triazolo[1,5-a]pyrazin-6-yl)-5-(5-fluoropyridin-2-yl)-4-hydroxy-5-methyl-5H-pyrrolo[2,3-d]pyrimidin-6(7H)-one] | 159 |  |  |  | B (Category B=SBP in SHRs 20-40 mmHg)
11 | CCCCc1nc(-c2nc(O)c3c(n2)NC(=O)[C@@]3(C)c2ccc(F)cc2)cn2ncnc12 [Example 154A, (S)-2-(8-butyl-[1,2,4]triazolo[1,5-a]pyrazin-6-yl)-5-(4-fluorophenyl)-4-hydroxy-5-methyl-5,7-dihydro-6H-pyrrolo[2,3-d]pyrimidin-6-one] | 100 | B (Category B=SBP in SHRs 20-40 mmHg) |  |  | 
12 | Nc1nc(-c2cn3ncnc3c(CCCC(F)(F)F)n2)nc2c1C(c1ccc(O)cn1)(C1CC1)C(=O)N2 (stereo not shown) [Example 112A, 4-amino-5-cyclopropyl-5-(5-hydroxypyridin-2-yl)-2-(8-(4,4,4-trifluorobutyl)-[1,2,4]triazolo[1,5-a]pyrazin-6-yl)-5H-pyrrolo[2,3-d]pyrimidin-6(7H)-one] | 91 |  |  | A (Category A=SBP in SHRs <20 mmHg) | 
13 | Nc1nc(-c2cn3ncnc3c(CCCC(F)(F)F)n2)nc2c1C(c1nnc(C(F)(F)F)o1)(C1CC1)C(=O)N2 (stereo not shown) [Example 106A, 4-amino-5-cyclopropyl-2-(8-(4,4,4-trifluorobutyl)-[1,2,4]triazolo[1,5-a]pyrazin-6-yl)-5-(5-(trifluoromethyl)-1,3,4-oxadiazol-2-yl)-5H-pyrrolo[2,3-d]pyrimidin-6(7H)-one] | 95 | C (Category C=SBP in SHRs >40 mmHg) |  |  | 
14 | CC1(c2ccc(Cl)cc2)C(=O)Nc2nc(-c3cn4ncnc4c(CCC(F)(F)F)n3)nc(O)c21 (stereo not shown) [Example 152A, 5-(4-chlorophenyl)-4-hydroxy-5-methyl-2-(8-(3,3,3-trifluoropropyl)-[1,2,4]triazolo[1,5-a]pyrazin-6-yl)-5H-pyrrolo[2,3-d]pyrimidin-6(7H)-one] | 70 |  |  | B (Category B=SBP in SHRs 20-40 mmHg) | 
15 | COc1ccc(C2(C3CC3)C(=O)Nc3nc(-c4cn5ncnc5c(CCCC(F)(F)F)n4)nc(N)c32)nc1 (stereo not shown) [Example 39A, 4-amino-5-cyclopropyl-5-(5-methoxypyridin-2-yl)-2-(8-(4,4,4-trifluorobutyl)-[1,2,4]triazolo[1,5-a]pyrazin-6-yl)-5H-pyrrolo[2,3-d]pyrimidin-6(7H)-one] | 96 | B (Category B=SBP in SHRs 20-40 mmHg) |  |  | 
16 | Nc1nc(-c2cn3ncnc3c(CCCC(F)(F)F)n2)nc2c1C(c1nnc(C3CC3)o1)(C1CC1)C(=O)N2 (stereo not shown) [Example 104A, 4-amino-5-cyclopropyl-5-(5-cyclopropyl-1,3,4-oxadiazol-2-yl)-2-(8-(4,4,4-trifluorobutyl)-[1,2,4]triazolo[1,5-a]pyrazin-6-yl)-5H-pyrrolo[2,3-d]pyrimidin-6(7H)-one] | 117 |  |  | C (Category C=SBP in SHRs >40 mmHg) | 
17 | CC1(c2ccc(C#N)cn2)C(=O)Nc2nc(-c3cn4ncnc4c(CCC(F)(F)C(F)(F)F)n3)nc(N)c21 (stereo not shown) [Example 18A] | 75 | C (Category C=SBP in SHRs >40 mmHg) |  |  | 

From US10925876B2, “Methods for using triazolo-pyrazinyl soluble guanylate cyclase activators in fibrotic disorders” (Merck Sharp & Dohme Corp., priority 2016, dated 2021)
